Structures are written as SMILES.

Experiment [1] relates to resistant Candida auris strains. The following applies: with fluconazole, voriconazole, itraconazole, cited from earlier work.
In another experiment the test system is fungi. The experiment in a line: fungicidal activity of NK1-antagonists alone. The following applies: NK1-antagonist alone, at higher concentrations. Type of experiment: cell-based.

In the case of `C[C@@H](O[C@H]1OCCN(Cc2nc(=O)[nH][nH]2)[C@H]1c1ccc(F)cc1)c1cc(C(F)(F)F)cc(C(F)(F)F)c1` [aprepitant, 5-[[(2R,3S)-2-[(1R)-1-[3,5-bis(trifluoromethyl)phenyl]ethoxy]-3-(4-fluorophenyl)-4-morpholinyl]methyl]-1,2-dihydro-3H-1,2,4-triazol-3-one], in experiment [1] (C. auris), the “synergistic enhancement of triazole antifungal activity” value is on record as “synergistically enhance the activity”. In addition, the “restoration of triazole susceptibility” value in experiment [1] (several resistant Candida auris strains) was “restore fluconazole-, voriconazole-, and itraconazole-susceptibility”.

Turning to `Cc1ccccc1-c1cc(N2CCN(C)CC2)ncc1N(C)C(=O)C(C)(C)c1cc(C(F)(F)F)cc(C(F)(F)F)c1` [netupitant, 2-[3,5-bis(trifluoromethyl)phenyl]-N, 2-dimethyl-N-[4-(2-methylphenyl)-6-(4-methylpiperazin-1-yl)pyridin-3-yl]propanamide], in the experiment with fungi, the independent fungicidal activity entry is “fungicidal activity”. On the same count and under the same terms, to `C[C@@H](OC[C@@]1(c2ccccc2)CC[C@]2(CCC(=O)N2)CN1)c1cc(C(F)(F)F)cc(C(F)(F)F)c1` [rolapitant, (5S,8S)-8-[[(1R)-1-[3,5-bis(trifluoromethyl)phenyl]ethoxy]methyl]-8-phenyl-1,9-diazaspiro[4. 5]decan-2-one] belongs “fungicidal activity”.

The record behind these values is US20250302821A1, “SYNERGISTIC ANTIFUNGAL COMPOSITION AND METHOD” (ST. JUDE CHILDREN'S RESEARCH HOSPITAL, INC., priority 2022, published 2025).
